# Results: patent publication US6350879B1, “Benziso-N (L-histidine methylester)-thiazolone, process for the preparation thereof, and use thereof for RNA polymerase inhibition” (Council of Scientific and Industrial Research, priority 2000, dated 2002)
# What was measured:
# [1] = biological target: E. coli RNA polymerase (Escherichia coli, UniProt P0A8T7); experiment: RNA polymerase inhibition, radioisotope (3H UTP) labelling transcription assay with calf thymus DNA; type: biochemical; settings: 0.8 μM of 3 with 0.4 μM E. coli RNA polymerase, incubated 15 min, dialysed overnight; native enzyme count = 100%
# E. coli RNA polymerase, sequence (P0A8T7 whole entry): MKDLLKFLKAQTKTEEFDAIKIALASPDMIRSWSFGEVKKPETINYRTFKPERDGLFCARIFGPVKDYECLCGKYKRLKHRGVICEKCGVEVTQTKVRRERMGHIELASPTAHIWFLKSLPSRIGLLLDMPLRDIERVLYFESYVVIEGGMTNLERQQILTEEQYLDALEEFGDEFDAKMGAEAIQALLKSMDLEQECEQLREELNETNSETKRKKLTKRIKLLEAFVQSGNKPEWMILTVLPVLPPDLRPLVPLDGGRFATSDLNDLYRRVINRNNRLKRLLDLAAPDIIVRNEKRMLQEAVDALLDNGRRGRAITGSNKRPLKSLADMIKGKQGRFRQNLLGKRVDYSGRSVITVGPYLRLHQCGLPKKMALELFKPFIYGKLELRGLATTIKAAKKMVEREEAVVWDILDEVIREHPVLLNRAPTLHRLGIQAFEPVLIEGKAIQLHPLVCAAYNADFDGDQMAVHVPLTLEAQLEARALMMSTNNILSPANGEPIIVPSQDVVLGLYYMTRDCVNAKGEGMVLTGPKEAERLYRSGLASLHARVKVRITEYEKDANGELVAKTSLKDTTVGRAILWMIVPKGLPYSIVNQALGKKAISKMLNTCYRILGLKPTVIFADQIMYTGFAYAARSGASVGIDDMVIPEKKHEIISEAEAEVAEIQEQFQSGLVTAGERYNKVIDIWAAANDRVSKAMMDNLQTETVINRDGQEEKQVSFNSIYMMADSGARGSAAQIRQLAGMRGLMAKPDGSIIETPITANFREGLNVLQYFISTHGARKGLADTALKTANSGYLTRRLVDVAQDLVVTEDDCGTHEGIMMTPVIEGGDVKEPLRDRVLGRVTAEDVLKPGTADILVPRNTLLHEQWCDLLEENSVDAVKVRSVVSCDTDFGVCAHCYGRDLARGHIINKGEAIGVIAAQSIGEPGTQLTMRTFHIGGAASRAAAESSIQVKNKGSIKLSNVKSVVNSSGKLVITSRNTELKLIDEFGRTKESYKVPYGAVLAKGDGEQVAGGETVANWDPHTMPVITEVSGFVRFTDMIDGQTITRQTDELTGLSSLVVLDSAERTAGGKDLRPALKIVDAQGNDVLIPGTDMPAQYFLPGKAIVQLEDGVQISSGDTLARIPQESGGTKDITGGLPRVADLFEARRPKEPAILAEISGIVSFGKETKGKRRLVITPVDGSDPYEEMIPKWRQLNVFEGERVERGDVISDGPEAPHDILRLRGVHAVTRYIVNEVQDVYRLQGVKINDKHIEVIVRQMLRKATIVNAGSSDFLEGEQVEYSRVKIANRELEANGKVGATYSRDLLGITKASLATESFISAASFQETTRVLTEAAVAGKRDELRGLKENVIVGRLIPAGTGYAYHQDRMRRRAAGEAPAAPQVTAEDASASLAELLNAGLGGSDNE
# E. coli RNA polymerase, sequence (P0A8V2 whole entry partner): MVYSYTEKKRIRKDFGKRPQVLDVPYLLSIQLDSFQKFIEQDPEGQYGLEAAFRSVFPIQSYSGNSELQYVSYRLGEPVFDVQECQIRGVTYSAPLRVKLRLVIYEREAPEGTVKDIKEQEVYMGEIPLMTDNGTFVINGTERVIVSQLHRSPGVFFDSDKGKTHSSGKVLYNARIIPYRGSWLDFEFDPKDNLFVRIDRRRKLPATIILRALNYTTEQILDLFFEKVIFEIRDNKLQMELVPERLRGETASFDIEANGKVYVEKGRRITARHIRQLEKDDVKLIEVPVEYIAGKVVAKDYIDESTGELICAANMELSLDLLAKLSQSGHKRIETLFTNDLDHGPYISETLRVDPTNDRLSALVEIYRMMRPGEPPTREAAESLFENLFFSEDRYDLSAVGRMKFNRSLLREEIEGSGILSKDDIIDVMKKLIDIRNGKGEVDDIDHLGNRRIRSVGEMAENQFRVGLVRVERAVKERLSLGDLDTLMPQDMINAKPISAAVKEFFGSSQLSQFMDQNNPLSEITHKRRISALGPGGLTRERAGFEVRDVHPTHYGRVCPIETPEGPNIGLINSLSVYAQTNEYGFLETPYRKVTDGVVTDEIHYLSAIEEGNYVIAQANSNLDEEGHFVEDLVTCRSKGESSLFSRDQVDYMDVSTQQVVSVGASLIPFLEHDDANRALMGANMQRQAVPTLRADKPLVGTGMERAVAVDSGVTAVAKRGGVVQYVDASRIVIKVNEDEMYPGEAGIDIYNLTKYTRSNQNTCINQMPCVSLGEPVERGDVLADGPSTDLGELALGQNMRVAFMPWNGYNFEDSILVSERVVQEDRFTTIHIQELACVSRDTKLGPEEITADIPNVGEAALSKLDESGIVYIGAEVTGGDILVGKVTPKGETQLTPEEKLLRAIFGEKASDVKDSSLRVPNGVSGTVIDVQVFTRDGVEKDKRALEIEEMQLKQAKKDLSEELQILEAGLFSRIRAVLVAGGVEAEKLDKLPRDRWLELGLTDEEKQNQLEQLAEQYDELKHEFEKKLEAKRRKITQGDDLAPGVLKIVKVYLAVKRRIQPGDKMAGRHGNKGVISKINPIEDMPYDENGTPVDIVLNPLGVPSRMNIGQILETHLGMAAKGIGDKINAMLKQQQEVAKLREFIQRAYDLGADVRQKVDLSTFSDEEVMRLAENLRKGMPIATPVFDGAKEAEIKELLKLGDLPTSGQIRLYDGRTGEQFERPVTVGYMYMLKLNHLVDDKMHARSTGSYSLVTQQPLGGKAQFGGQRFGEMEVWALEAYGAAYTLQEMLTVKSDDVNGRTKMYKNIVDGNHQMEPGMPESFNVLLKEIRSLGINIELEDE
# E. coli RNA polymerase, sequence (P0A7Z4 whole entry partner): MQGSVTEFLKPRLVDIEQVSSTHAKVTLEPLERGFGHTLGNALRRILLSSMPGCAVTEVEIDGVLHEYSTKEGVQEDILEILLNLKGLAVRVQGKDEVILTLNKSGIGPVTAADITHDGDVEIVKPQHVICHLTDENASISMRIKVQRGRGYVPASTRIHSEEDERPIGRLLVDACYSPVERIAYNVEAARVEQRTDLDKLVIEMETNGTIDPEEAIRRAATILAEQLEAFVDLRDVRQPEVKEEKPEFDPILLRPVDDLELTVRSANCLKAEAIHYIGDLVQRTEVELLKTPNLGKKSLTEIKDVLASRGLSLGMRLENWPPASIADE
# E. coli RNA polymerase, sequence (P00579 whole entry partner): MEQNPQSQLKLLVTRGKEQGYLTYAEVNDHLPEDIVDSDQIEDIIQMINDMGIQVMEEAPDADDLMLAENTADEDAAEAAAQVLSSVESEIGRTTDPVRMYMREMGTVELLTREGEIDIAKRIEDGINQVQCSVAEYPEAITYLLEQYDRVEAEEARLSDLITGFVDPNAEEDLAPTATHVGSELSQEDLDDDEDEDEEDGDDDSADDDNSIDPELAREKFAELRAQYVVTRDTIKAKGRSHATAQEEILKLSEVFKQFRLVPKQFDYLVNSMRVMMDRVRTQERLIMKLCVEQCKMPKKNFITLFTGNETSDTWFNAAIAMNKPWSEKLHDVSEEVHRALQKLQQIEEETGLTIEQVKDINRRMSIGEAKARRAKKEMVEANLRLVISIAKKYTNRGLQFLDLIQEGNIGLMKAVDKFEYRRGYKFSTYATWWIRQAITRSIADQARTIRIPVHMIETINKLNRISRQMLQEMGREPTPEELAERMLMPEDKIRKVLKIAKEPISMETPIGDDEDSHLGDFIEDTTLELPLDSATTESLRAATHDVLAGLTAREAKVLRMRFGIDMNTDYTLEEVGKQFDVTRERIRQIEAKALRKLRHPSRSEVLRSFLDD
# Method: In a typical experiment, the course of transcription of calf thymus DNA by E. coli RNA polymerase was monitored in the presence and absence of the redox system 3. The enzyme aliquot after admixing with 3 was incubated for 15 minutes and then dialyzed overnight. A general transcription assay was then carried out in a medium, which contained ^3H UTP in addition to other nucleotides. The amount of radioactive UTP (uridine triphaspate) incorporated in the transcribed RNA was monitored by scintillation counter and the count, when compared to that obtained on using native enzyme gave the percentage loss of activity.
# A mixture containing 0.8 μM solution of 3 (5 μL from 8 μM stock in methanol) and 0.4 μM of E. coli RNA polymerase (5 μl from 4 μM stock) in 1×transcription buffer ^a (5 μL) and 35 μL of milliQ water was incubated for 15 min, and dialysed ^b overnight, 4×Transcription assay mixture ^c (10 μL) was diluted with 10 μL of milliQ water and admixed with 20 μL of treated and dialyzed enzyme. The mixture was incubated for 20 minutes and spotted on to a DE81 filter paper strip ^d, which was pre-coated with EDTA to arrest further transcription. The filter paper strips were allowed to air dry for three hours, washed successively with 5% Na2HPO4 solution (3×200 mL, 10 min. each), distilled water (2×200 mL, 5 min. each) and then with ethanol (2×75 mL). […]
# [2] = Stability at normal conditions; type: physicochemical
structure (smiles),measurement,setting,value
"COC(=O)C(Cc1cnc[nH]1)n1sc2ccccc2c1=O [compound 3, benziso-N(L-histidine methylester)-thiazolone]",activity compared to the native enzyme,[1],53%
same,inhibition of activity,[1],47%
same,stability,[2],stable at normal conditions
